Measured values as given in patent US10188693B2, “Methods for treatment of atherosclerosis” (Stealth BioTherapeutics Corp, priority 2012, dated 2019).
Several values for one entry are separate records, joined by “and”; a condition that tells them apart may be missing. Equal values may be shown once.

Tests used:
[1] = system: Apoprotein E deficient mice; assay: Thoracic aorta lipids (Bligh-Dyer extraction, WAKO kits; TC, FC, CE per mg protein); type: in vivo; details: 12 weeks
Source text: Apoprotein E deficient mice (Jackson Laboratories, 600 Main Street, Bar Harbor, Me.) were used in this study. The mice were male, 7-8 weeks of age, and between 18-20 g in weight. An initial total cholesterol measurement was made on 30 mice, and the mice were grouped into two groups of 15 to match the total cholesterol measurements. Both groups were fed a “western diet” (40 kcal % butterfat, 0.15% [wt/wt] cholesterol, Harlan Teklad diet TD-88137). Starting at t=0, the control group of 15 mice received vehicle only (phosphate buffered saline at pH 7.4), while the test group of 15 mice received aromatic-cationic peptide reconstituted in phosphate buffered saline. Body weights of the mice were recorded weekly, and mortality checks were performed daily.
The aromatic-cationic peptide D-Arg-2′6′-Dmt-Lys-Phe-NH2 (sterile lyophilized powder, reconstituted in phosphate buffered saline) was tested. For the 12-week study, test mice received a single, daily dose of the peptide, subcutaneously at 1 mg/kg. Control mice received a single daily dose of vehicle.
Histopathology/Histomorphometery: Following the 12 week treatment, mice were euthanized within 48 hours after the last dose by CO2 asphyxiation and the vascular tree was perfused with 5 mL of phosphate buffered saline (pH 7.4). The aorta and aortic sinus were removed for examination. Thoracic aorta were isolated, trimmed of fat, and fixed in formalin for 48-72 hours before analysis. For en face analysis, aortas were laid out and pinned on black matrix for photography, and stained with Sudan IV. Vessels were imaged for surface involvement using a Nikon computerized image analysis system and the percent of the aortic surface area covered by lipid was calculated. Two determinations were done for each image (Quan 1 and Quan 2), and the average was computed. The data were then computed by group and statistically analyzed. Following staining and morphometric analysis, total lipids were extracted from the aortas using the Bligh-Dyer method. WAKO Diagnostics kits (WAKO Diagnostics, Inc., 1600 Bellwood Road Richmond, Va. 23237-1326) were then used to evaluate total cholesterol, free cholesterol, and cholesterol ester. Cholesterol leves were quantitate nad expressed relative to protein levels. Values are expressed as μg lipid per mg protein (see e.g., FIG. 1).

Human skin fibroblasts = assay: Coenzyme Q10 levels in fibroblasts treated with peptide; type: cell-based; details: 10 nM peptide, 16-24 hours or 5 days, versus saline treated fibroblasts; listed as aromatic-cationic peptide
Procedure: Fibroblasts were treated with an aromatic-cationic peptide of the present disclosure, and levels of coenzyme Q10 were evaluated.
Human skin fibroblasts from normal subjects were incubated under standard tissue culture medium containing high glucose levels to support anaerobic conditions. At approximately 90% confluence, cells were incubated in the presence of 10 nM D-Arg-2′6′-Dmt-Lys-Phe-NH2 for a period of either one day (24 h) or five days as shown in Table 11 below. The culture medium was not changed during the incubation period. Cells were harvested and the cellular level of CoQ was determined using methods known in the art. Data represents the average n=3-6.

[2] = group average, 1 mg/kg subcutaneously daily
[3] = individual mouse, 1 mg/kg subcutaneously daily, μg lipid per mg protein, listed as Peptide, 1 mg/kg
[4] = treated versus vehicle, listed as aromatic-cationic peptide

Substance: D-Arg-2′6′-Dmt-Lys-Phe-NH2
- CE (cholesterol ester), thoracic aorta, AVE [1, 2]: 14.6 µg/mg
- FC (free cholesterol), thoracic aorta, AVE [1, 2]: 5.7 µg/mg
- TC (total cholesterol), thoracic aorta, AVE [1, 2]: 20.4 µg/mg
- CE (cholesterol ester), thoracic aorta [1, 3]: 13.8 μg/mg and 2.7 μg/mg and 30.3 μg/mg and 14.7 μg/mg and 30.7 μg/mg and 14.1 μg/mg and 4.6 μg/mg (2×) and 5.6 μg/mg (2×) and 28.5 μg/mg and 21.3 μg/mg and 18.6 μg/mg and 11.4 μg/mg and 13.0 μg/mg
- FC (free cholesterol), thoracic aorta [1, 3]: 7.6 μg/mg (2×) and 4.0 μg/mg and 5.1 μg/mg and 3.0 μg/mg (2×) and 8.1 μg/mg and 2.7 μg/mg and 3.5 μg/mg and 14.6 μg/mg and 6.6 μg/mg and 3.8 μg/mg and 3.6 μg/mg and 3.3 μg/mg and 9.5 μg/mg
- TC (total cholesterol), thoracic aorta [1, 3]: 21.4 µg/mg and 6.7 µg/mg and 35.4 µg/mg and 17.7 µg/mg and 38.8 µg/mg and 16.8 µg/mg and 8.1 µg/mg and 20.1 µg/mg and 35.1 µg/mg and 9.4 µg/mg and 24.9 µg/mg and 21.7 µg/mg and 7.9 µg/mg and 19.0 µg/mg and 22.5 µg/mg
- cholesterol esters in the thoracic aorta, in words [1, 4]: lower
- free cholesterol in the thoracic aorta, in words [1, 4]: lower
- total cholesterol in the thoracic aorta, in words [1, 4]: lower
- coenzyme Q10 levels in fibroblast cells, in words (Human skin fibroblasts): increased
